Assay results published in patent US20250269043A1, “TARGETED BIFUNCTIONAL DEGRADERS” (YALE UNIVERSITY, priority 2019, published 2025).

Key:
α-DNP antibody = experiment: In vivo depletion of α-DNP antibody from serum in mice (ELISA); details: for serum α-DNP antibody levels compared to PBS: FIG. 94; for α-DNP antibody depleted from serum 24 hours after a single dose: vehicle control 24%
Description: FIG. 94 illustrates that serum levels of α-DNP antibody decrease more rapidly following repeated treatment with DNP-GN3. Serum antibody levels were measured using an ELISA assay. Each experimental group contained three mice. Statistical differences in experiments involving in vivo depletion of α-DNP antibody were assessed by repeated measures two-way ANOVA with Tukey's tests for post-hoc comparison of simple effects between each of the treatment groups and PBS.
Single doses of DNP-GN3 were also found to be efficacious at mediating α-DNP antibody depletion, albeit less effectively than daily dosing (FIG. 96). […] Therefore, it was concluded that DNP-GN3 is able to mediate the depletion of a monoclonal antibody from serum, and functions across a wide range of target protein concentrations and dosing regimens.
DNP-GN3 was also found to be efficacious in depleting polyclonal α-DNP antibody from serum collected from mice immunized with DNP-keyhole limpet haemocyanin (KLH) (FIG. 97). […] Thus, the small molecule DNP-GN3 is not restricted in function to only monoclonal mouse antibodies, but is also effective at removing polyclonal α-DNP antibodies from circulation in mice.

HepG2 cells = experiment: Subcellular localization and degradation of α-DNP antibody endocytosed with DNP-GN3 (microscopy, western blotting); assay type: cell-based, human
Description: In addition, western blotting with an antibody directed to Alexa Fluor 488 was used to determine if endocytosed fluorescently labeled α-DNP antibodies are degraded in vitro. […] Signal arising from Alexa Fluor 488 in cell lysates was associated with only full-length antibody after two hours of incubation. After six hours, a lower molecular weight fluorophore-associated protein fragment between 37 and 50 kDa began to appear. An additional protein fragment with a molecular weight between 25 and 37 kDa was observed after 24 hours. […] Together with the above immunofluorescence studies showing the colocalization of α-DNP antibody-derived fluorescence with lysosomes, these studies support that α-DNP antibody degradation is mediated by lysosomal proteases. Lysosomal degradation is further consistent with a mechanism dependent on ASGPR.

human MIF = target: T1, human MIF (Homo sapiens, UniProt P14174); experiment: Depletion of injected recombinant human MIF from serum in mice; assay type: in vivo; parameters: injected into mice; details: for depletion of human MIF protein from serum: 30 minutes, FIG. 135
T1 sequence (P14174 2-115 limits assumed): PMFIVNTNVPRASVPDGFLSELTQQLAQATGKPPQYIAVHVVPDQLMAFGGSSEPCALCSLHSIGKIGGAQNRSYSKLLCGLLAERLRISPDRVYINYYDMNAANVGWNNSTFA
Description: In vivo human MIF depletion experiments were undertaken to determine whether MIF-GN3 can mediate the depletion of injected recombinant human MIF from serum in mice. Mice were injected with five μg of the human MIF protein. In this experiment, one group of mice was also injected with a single 10 mpk dose of MLF-GN3 along with human MIF protein. It was observed that after four hours, the average level of human MIF in serum in the PBS-treated mice was 1.76 ng/mL (FIG. 134). In mice treated with 10 mpk MIF-GN3, however, the concentration of human MIF in serum was 0.68 ng/mL. One day after the initial injection, human MIF levels had reached background levels for both conditions. […] It was hypothesized that, due to the short half-life of human MIF in serum, investigating human MIF levels at earlier time points may be more informative.
Next, an experiment was performed to determine whether MIF-GN3 could enhance MIF clearance at time points earlier than four hours. Mice were coinjected with recombinant human MIF and 10 mpk MIF-GN3 via either i.p. or i.v. routes. For the PBS control arms, human MIF was injected with PBS. It was observed that in the absence of MIF-GN3, there was a spike in huMIF levels in circulation after 30 minutes (FIG. 135). In the presence of MIF-GN3, however, levels of MIF protein remained low at 30 minutes and no spike in its concentration was observed. By two hours, the levels of human MIF in circulation decreased to background levels.
In a further experiment, whether an inhibitor of the MIF protein (3w) is able to mediate the protein's depletion from serum was determined. A bifunctional molecule that mediates the depletion of α-DNP antibody from serum was also assayed as a negative control. Neither of these molecules was expected to mediate the formation of a ternary complex between human MIF protein and ASGPR.

PC3 cells = experiment: PC3 human prostate cancer cell tumor model in mice; assay type: in vivo; details: for tumor growth: FIG. 138
Description: The ability of MIF-GN3 to mediate the depletion of MIF in a therapeutically relevant disease model was investigated. […] An experiment was conducted to determine whether the bifunctional molecule MIF-GN3 can deplete sufficient human MIF from serum to slow PC3 tumor growth. Mice were injected with an aliquot of PC3 cells, and the size of the resultant tumors as well as the levels of human MIF in serum were monitored over five weeks. […] Five weeks after the initial PC3 cell injection, the first of the mice reached maximal tumor size ([…]) and was sacrificed (FIG. 138). […] The decrease in human MIF levels mediated by MIF-GN3 is consistent with a mechanism of action in which MIF-GN3 mediates the depletion and degradation of circulating MIF protein. While the α-MIF antibody would not necessarily be expected to decrease the levels of human MIF, it is possible that the antibody mediates MIF neutralization in a manner which masks its signal as determined by ELISA. Alternatively, the α-MIF antibody may mediate depletion or degradation of huMIF by some endocytic mechanism. Another possible explanation is that the α-MIF antibody decrease serum levels of active human MIF to such an extent at early time points that PC3 cells proliferate much more slowly, and therefore fewer cells are actively secreting human MIF.
Mice were sacrificed when their tumor volumes reached 1000 mm^3. […] At this same time point, less than 25% of the mice in any other arm had survived.

[1] = MIF-GN3 at 10 mpk, control arms DNP-GN3 and 3w

Compound	serum α-DNP antibody levels compared to PBS (α-DNP antibody; 200 μg monoclonal mouse IgG2 α-DNP antibody, daily and twice-daily 1 mpk, 21 days, nude mice)	α-DNP antibody depleted from serum 24 hours after a single dose (α-DNP antibody; 1 mpk, FIG. 96) [%]	α-DNP antibody depleted from serum 24 hours after a single dose (α-DNP antibody; 10 mpk, FIG. 96) [%]	α-DNP antibody depletion after a single dose (α-DNP antibody; 100 mpk, FIG. 96)	degradation of injected anti-DNP IgG antibodies in mouse serum (α-DNP antibody; i.p. injection, FIG. 79A)	serum α-DNP antibody levels compared to PBS (α-DNP antibody; initial antibody dose of 500 μg, daily treatment)	depletion of polyclonal α-DNP antibody from serum compared to PBS (α-DNP antibody; mice immunized with DNP-KLH, daily treatment, each time point, FIG. 97)	colocalization of endocytosed α-DNP antibody with lysosome membrane protein LAMP2 (HepG2 cells; after 12 hours, FIG. 91B)	degradation of endocytosed α-DNP antibody (western blot for Alexa Fluor 488) (HepG2 cells; cell lysates, 2 to 24 hours, FIG. 92A)	human MIF concentration in serum compared to the PBS control (human MIF; control molecules injected along with human MIF, FIG. 136)	tumor growth (PC3 cells; [1])	depletion of human MIF protein from serum (human MIF; 10 mpk coinjected i.p.)	depletion of human MIF protein from serum (human MIF; 10 mpk coinjected i.v.)	human MIF levels in serum compared to the PBS control (human MIF; one mpk, 40 and 60 minute time points, FIG. 136)	concentration of human MIF in serum (human MIF; single 10 mpk dose with five μg human MIF, after four hours, PBS-treated 1.76 ng/mL, difference not significant, FIG. 134) [ng/mL]	human MIF levels in serum compared to the PBS control (human MIF; ten mpk, 40 and 60 minutes, FIG. 136)	levels of human MIF protein in the serum (PC3 cells; MIF-GN3 1 mpk, α-MIF antibody arm, FIG. 139)	tumor growth (PC3 cells; MIF-GN3 at a dose of 1 mpk, α-MIF antibody arm)	survival (PC3 cells; eight weeks after the initial PC3 cell injection, MIF-GN3 1 mpk, FIG. 140) [%]
CC(=O)NC1C(OCCOCCOCCNC(=O)CCOCC(COCCC(=O)NCCOCCOCCOC2OC(CO)C(O)C(O)C2NC(C)=O)(COCCC(=O)NCCOCCOCCOC2OC(CO)C(O)C(O)C2NC(C)=O)NC(=O)CNC(=O)COCCOCCOCCNc2ccc([N+](=O)[O-])cc2[N+](=O)[O-])OC(CO)C(O)C1O (centres unmarked) [DNP-GN3]	significantly reduced	52	34	Significant depletion	can induce degradation	significant decrease	significantly more polyclonal α-DNP antibody was removed	strong colocalization	endocytosed α-DNP antibody is degraded in HepG2 cells	no significant decreases	not found to decrease tumor growth								
CC(=O)N[C@H]1[C@H](OCCOCCOCCNC(=O)CCOCC(COCCC(=O)NCCOCCOCCO[C@@H]2O[C@H](CO)[C@H](O)[C@H](O)[C@H]2NC(C)=O)(COCCC(=O)NCCOCCOCCO[C@@H]2O[C@H](CO)[C@H](O)[C@H](O)[C@H]2NC(C)=O)NC(=O)CNC(=O)CCCOc2ccc3nc(-c4cn(-c5ccc(O)c(F)c5)nn4)ccc3c2)O[C@H](CO)[C@H](O)[C@@H]1O [MIF-GN3]											not found to decrease tumor growth	significant depletion	significant depletion	significant decrease	0.68	significant decreases	decreased levels	delay in tumor growth	80
